These results are taken from ChEMBL document CHEMBL3991601, “The target landscape of clinical kinase drugs” (Science, 2017).

Assay [1] concerns the target Platelet-derived growth factor receptor beta (Homo sapiens, UniProt P09619).
Assay [2] has as its target Non-receptor tyrosine-protein kinase TYK2 (Homo sapiens, UniProt P29597).
The target in assay [3] is Cyclin-dependent kinase 2 (Homo sapiens, UniProt P24941).
The target in assay [4] is Receptor-interacting serine/threonine-protein kinase 2 (Homo sapiens, UniProt O43353).
Assay [5] deals with Mitogen-activated protein kinase kinase kinase kinase 5 (Homo sapiens, UniProt Q9Y4K4).
The target of assay [6] is DnaJ homolog subfamily A member 1 (Homo sapiens, UniProt P31689).
Assay [7] deals with Mitogen-activated protein kinase 14 (Homo sapiens, UniProt Q16539).
Another assay deals with Ephrin type-A receptor 5 (Homo sapiens, UniProt P54756).
The target of assay [8] is Bone morphogenetic protein receptor type-1B (Homo sapiens, UniProt O00238).
The target of another assay is Deoxycytidine kinase (Homo sapiens, UniProt P27707).
Assay [9] has as its target Dual specificity testis-specific protein kinase 1 (Homo sapiens, UniProt Q15569).
The target of assay [10] is T1, Glycogen phosphorylase, liver form (Homo sapiens, UniProt P06737).
T1 sequence (P06737 whole entry): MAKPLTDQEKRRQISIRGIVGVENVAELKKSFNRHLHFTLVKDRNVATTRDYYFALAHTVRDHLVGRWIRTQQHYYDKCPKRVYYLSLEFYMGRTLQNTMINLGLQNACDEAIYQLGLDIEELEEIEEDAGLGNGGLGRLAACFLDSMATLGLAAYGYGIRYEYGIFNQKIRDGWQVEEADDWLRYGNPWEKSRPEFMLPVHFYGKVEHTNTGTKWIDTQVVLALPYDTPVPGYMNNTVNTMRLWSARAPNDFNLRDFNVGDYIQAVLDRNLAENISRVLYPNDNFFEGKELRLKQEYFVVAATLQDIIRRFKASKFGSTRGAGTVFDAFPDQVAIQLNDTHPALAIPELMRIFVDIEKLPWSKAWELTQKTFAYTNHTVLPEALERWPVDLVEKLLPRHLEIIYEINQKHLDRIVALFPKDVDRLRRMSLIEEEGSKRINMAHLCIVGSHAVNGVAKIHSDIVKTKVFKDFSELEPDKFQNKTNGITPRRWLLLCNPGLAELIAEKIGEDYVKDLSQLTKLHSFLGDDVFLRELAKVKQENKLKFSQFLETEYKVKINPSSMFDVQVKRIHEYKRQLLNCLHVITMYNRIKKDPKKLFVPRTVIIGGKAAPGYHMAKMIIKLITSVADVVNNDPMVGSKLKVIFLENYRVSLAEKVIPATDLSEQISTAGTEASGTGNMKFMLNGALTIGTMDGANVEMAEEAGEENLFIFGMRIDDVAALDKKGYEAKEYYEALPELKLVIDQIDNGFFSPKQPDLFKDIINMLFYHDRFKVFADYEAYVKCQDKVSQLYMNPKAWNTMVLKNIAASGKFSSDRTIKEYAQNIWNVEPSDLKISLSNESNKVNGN
The class given is subcellular, K-562, COLO 205, SK-N-BE(2) and MV-4-11, Cell lysate. Conditions: read-out: Kd apparent.

The target in assay [11] is T2, Dual specificity mitogen-activated protein kinase kinase 5 (Homo sapiens, UniProt Q13163).
T2 sequence (Q13163 whole entry): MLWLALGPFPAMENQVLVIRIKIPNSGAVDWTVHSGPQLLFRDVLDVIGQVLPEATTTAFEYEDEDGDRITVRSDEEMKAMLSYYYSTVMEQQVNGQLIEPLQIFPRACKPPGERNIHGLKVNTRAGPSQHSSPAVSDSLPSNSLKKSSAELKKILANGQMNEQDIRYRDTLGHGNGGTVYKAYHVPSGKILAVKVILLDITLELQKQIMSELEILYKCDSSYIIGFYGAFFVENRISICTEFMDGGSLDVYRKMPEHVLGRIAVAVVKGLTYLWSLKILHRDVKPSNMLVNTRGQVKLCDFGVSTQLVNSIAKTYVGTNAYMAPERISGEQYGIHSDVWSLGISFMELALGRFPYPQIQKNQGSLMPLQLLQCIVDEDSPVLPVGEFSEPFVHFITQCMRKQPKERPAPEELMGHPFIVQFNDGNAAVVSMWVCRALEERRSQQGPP

Assay [12] has as its target T3, Ras-related protein Rab-10 (Homo sapiens, UniProt P61026).
T3 sequence (P61026 whole entry): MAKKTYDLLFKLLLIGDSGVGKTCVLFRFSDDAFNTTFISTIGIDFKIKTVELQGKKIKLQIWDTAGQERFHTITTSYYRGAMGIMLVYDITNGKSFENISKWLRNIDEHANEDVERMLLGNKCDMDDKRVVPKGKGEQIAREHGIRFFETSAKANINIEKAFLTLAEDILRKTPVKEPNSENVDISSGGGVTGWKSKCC

The target in assay [13] is Serine/threonine-protein kinase SIK2 (Homo sapiens, UniProt Q9H0K1).
The target in assay [14] is cAMP-dependent protein kinase catalytic subunit gamma (Homo sapiens, UniProt P22612).
The target in assay [15] is Tyrosine-protein kinase Lyn (Homo sapiens, UniProt P07948).

The structures appear in SMILES notation. Activity calls are given as the source filed them. Cut-off read from the data, not from the text of the source, for most assays here: actives have a measured Kd and inactives only a lower limit. Some results are limits rather than exact numbers.
Note: in the data inactive means no Kd found up to 30 µM.

Dual specificity testis-specific protein kinase 1, sequence (Q15569 whole entry): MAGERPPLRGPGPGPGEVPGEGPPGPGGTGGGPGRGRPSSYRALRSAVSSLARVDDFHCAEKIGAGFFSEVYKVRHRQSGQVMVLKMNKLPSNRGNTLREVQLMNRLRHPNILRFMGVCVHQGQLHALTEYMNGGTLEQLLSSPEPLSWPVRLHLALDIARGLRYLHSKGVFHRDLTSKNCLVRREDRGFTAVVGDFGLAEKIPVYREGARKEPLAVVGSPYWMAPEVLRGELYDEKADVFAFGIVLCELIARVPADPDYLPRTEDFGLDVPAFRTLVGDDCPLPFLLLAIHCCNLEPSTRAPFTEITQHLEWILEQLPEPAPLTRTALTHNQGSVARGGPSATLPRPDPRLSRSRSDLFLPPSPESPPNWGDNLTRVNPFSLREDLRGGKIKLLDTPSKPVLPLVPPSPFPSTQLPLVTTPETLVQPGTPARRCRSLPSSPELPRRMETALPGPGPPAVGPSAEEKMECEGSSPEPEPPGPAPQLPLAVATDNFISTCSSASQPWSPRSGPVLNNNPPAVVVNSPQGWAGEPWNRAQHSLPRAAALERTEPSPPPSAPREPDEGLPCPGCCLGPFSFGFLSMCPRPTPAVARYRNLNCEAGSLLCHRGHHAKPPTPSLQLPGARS
DnaJ homolog subfamily A member 1, sequence (P31689 whole entry): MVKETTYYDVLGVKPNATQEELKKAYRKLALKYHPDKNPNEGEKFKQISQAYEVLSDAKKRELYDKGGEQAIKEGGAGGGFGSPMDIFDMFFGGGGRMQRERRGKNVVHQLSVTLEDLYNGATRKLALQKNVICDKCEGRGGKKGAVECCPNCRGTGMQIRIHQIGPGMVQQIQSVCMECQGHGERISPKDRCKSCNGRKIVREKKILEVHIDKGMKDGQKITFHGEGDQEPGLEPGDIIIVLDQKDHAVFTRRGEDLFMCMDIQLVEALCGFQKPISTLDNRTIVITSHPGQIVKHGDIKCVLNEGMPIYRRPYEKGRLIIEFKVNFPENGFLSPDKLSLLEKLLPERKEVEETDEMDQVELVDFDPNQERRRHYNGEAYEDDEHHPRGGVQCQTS
Mitogen-activated protein kinase kinase kinase kinase 5, sequence (Q9Y4K4 whole entry): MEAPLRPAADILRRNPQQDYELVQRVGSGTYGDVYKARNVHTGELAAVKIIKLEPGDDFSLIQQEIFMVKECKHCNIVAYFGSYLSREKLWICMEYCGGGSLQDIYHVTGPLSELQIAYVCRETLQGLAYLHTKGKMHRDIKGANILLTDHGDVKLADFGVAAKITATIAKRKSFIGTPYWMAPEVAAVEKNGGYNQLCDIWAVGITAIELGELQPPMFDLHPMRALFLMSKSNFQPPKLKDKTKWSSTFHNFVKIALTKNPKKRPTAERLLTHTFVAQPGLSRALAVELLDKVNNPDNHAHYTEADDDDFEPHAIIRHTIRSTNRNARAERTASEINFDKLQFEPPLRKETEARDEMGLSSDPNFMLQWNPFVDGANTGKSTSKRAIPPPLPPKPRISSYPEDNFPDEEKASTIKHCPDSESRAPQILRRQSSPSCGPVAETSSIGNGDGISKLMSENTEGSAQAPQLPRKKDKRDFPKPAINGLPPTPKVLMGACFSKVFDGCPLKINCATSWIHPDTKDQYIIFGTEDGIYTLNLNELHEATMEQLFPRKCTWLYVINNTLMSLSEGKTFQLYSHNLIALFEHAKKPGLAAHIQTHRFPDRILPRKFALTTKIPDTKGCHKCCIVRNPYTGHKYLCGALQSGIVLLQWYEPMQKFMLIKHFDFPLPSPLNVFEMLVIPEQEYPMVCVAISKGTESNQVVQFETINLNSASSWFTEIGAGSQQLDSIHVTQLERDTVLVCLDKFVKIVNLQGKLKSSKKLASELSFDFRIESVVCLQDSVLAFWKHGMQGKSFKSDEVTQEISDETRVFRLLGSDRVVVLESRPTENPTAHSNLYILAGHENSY
Bone morphogenetic protein receptor type-1B, sequence (O00238 whole entry): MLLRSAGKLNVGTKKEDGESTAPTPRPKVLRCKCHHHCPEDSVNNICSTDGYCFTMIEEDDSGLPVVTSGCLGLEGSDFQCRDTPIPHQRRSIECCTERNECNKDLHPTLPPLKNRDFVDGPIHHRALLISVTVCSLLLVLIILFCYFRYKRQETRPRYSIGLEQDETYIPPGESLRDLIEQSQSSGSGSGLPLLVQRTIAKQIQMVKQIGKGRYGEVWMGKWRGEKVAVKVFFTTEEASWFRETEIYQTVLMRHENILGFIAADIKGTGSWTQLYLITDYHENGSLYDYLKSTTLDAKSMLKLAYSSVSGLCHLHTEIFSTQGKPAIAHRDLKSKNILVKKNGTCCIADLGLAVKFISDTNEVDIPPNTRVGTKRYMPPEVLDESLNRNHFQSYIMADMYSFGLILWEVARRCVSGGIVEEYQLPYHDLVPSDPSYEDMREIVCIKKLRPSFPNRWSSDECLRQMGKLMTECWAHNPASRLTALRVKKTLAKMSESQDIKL
Deoxycytidine kinase, sequence (P27707 whole entry): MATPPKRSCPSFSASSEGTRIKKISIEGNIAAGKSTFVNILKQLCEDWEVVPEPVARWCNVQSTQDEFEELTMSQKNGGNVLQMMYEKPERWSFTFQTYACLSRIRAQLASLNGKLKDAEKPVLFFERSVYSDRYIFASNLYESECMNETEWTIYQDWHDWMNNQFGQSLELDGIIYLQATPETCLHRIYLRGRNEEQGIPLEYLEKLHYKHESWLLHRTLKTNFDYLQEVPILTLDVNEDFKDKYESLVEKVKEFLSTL
Receptor-interacting serine/threonine-protein kinase 2, sequence (O43353 whole entry): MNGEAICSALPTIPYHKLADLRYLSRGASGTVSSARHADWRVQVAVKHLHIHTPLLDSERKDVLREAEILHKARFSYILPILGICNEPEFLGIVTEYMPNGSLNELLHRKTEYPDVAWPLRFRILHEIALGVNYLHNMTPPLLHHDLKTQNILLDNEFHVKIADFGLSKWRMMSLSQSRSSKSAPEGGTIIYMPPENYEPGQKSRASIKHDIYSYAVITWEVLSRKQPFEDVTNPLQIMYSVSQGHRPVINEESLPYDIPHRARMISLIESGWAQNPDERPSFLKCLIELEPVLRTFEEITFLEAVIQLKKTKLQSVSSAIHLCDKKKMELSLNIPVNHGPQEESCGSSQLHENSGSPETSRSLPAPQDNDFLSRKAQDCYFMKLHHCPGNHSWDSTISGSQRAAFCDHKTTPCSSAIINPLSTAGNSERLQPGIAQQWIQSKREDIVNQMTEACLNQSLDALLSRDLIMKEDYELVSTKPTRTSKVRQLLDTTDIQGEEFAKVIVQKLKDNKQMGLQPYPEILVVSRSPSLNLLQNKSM
Platelet-derived growth factor receptor beta, sequence (P09619 whole entry): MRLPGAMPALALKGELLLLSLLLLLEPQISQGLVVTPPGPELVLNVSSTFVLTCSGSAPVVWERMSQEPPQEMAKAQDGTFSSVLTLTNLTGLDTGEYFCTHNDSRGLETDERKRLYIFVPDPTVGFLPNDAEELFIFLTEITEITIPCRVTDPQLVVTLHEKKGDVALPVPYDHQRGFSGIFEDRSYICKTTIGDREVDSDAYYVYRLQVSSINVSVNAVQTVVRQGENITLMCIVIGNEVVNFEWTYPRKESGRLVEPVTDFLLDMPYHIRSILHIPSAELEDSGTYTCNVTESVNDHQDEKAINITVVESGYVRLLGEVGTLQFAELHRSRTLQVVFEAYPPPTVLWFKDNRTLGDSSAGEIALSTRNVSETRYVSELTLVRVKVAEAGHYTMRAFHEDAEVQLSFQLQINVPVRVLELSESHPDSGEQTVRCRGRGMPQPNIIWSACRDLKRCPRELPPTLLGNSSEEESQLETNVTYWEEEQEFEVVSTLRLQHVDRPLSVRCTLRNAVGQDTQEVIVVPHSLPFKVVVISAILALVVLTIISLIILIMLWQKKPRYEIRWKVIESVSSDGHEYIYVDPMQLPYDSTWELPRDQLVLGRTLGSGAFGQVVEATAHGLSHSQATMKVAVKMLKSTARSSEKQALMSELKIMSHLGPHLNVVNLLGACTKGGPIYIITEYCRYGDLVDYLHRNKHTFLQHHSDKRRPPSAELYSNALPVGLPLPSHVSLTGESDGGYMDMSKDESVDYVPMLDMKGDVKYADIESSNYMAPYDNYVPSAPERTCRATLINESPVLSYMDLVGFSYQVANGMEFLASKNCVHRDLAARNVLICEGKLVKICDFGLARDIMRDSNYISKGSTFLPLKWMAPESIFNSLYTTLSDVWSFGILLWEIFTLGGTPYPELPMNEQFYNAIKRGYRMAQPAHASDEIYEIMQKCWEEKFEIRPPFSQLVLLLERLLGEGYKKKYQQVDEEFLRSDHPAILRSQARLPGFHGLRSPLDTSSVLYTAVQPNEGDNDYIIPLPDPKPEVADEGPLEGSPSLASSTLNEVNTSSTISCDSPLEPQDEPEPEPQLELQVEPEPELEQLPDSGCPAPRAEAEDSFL
cAMP-dependent protein kinase catalytic subunit gamma, sequence (P22612 whole entry): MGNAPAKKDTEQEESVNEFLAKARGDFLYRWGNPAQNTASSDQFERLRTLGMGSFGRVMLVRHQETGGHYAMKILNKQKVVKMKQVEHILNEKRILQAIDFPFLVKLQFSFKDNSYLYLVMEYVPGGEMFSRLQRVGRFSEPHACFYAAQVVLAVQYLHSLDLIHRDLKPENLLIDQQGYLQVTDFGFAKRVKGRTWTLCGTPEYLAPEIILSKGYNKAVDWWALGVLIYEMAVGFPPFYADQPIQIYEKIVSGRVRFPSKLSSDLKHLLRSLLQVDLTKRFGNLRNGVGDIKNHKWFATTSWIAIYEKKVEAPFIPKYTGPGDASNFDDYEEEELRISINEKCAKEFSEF
Mitogen-activated protein kinase 14, sequence (Q16539 whole entry): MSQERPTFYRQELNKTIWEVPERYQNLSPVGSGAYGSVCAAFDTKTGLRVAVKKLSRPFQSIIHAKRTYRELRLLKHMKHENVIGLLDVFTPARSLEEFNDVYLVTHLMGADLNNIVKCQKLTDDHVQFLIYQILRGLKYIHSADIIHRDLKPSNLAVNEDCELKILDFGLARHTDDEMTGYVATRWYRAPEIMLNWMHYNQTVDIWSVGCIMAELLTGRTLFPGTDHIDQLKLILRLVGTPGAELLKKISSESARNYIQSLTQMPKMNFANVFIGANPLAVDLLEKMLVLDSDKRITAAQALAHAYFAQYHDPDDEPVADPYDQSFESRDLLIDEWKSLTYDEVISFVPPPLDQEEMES

For the compound `COc1cc([C@@H]2c3cc4c(cc3[C@H](O)[C@H]3COC(=O)[C@@H]23)OCO4)cc(OC)c1OC` [AXL-1717], the Kd in [1], in [2], in assay [3], in assay [4], in [5] and in assay [6] was > 30 µM (inactive) each time. For the same compound, the Kd (in [7]; on Ephrin type-A receptor 5; in assay [8]; on Deoxycytidine kinase; in assay [9]; in [10]) was > 30 µM (inactive) in each case. The Kd in assay [11], in assay [12], in [13], in assay [14] and in assay [15] was > 30 µM (inactive) in each case.
On to `NC(=O)Nc1cc(-c2cccc(F)c2)sc1C(=O)N[C@H]1CCCNC1` [AZD-7762], for which the Kd in assay [1] was 0.552 µM (active); in assay [2] it was > 30 µM (inactive); in assay [3] it was > 30 µM (inactive); in assay [4], > 30 µM (inactive); in [5], 0.197 µM (active); in assay [6], > 30 µM (inactive). The Kd (in [7]; on Ephrin type-A receptor 5; in [8]; at Deoxycytidine kinase; in assay [9]; in assay [10]) was > 30 µM (inactive) throughout. Also, the Kd was 0.147 µM (active) in assay [11]; > 30 µM (inactive) in [12]; 0.007 µM (active) in assay [13]; > 30 µM (inactive) in assay [14]; 0.48 µM (active) in [15].
Take `Cn1cnc2c(F)c(Nc3ccc(Br)cc3F)c(C(=O)NOCCO)cc21` [BINIMETINIB]: the Kd in [1], in [2], in assay [3], in assay [4], in [5] and in [6] was > 30 µM (inactive) each time. Also, the Kd (in assay [7]; at Ephrin type-A receptor 5; in [8]; on Deoxycytidine kinase; in assay [9]; in [10]) was > 30 µM (inactive) each time. Moreover, the Kd in [11], in assay [12], in assay [13], in assay [14] and in assay [15] was > 30 µM (inactive) throughout.
`CCn1c(C(=O)N(C2CC2)C2CC2)cc2c3c(ncn3C)c(Nc3cc(C)n(C)n3)nc21` [BMS-911543]: the Kd in assay [1], in assay [2], in assay [3], in assay [4], in assay [5] and in assay [6] was > 30 µM (inactive) throughout. In addition, the Kd (in assay [7]; at Ephrin type-A receptor 5; in [8]; on Deoxycytidine kinase; in assay [9]; in assay [10]) was > 30 µM (inactive) in each case. In addition, the Kd in assay [11], in assay [12], in assay [13], in assay [14] and in [15] was > 30 µM (inactive) in each case.
For the compound `Cc1cc(Nc2ncc(Cl)c(Nc3ccccc3S(=O)(=O)C(C)C)n2)c(OC(C)C)cc1C1CCNCC1` [CERITINIB], the Kd in [1], in assay [2], in assay [3], in assay [4], in [5] and in assay [6] was > 30 µM (inactive) throughout. For the same compound, the Kd (in assay [7]; at Ephrin type-A receptor 5; in assay [8]; at Deoxycytidine kinase; in [9]; in assay [10]) was > 30 µM (inactive) throughout. The Kd in assay [11], in assay [12], in assay [13], in [14] and in assay [15] was > 30 µM (inactive) each time.
Turning to `COc1c(OCCCN2CCOCC2)ccc2c1N=C(NC(=O)c1cnc(N)nc1)N1CCN=C21` [COPANLISIB], the Kd in [1], in assay [2], in assay [3], in assay [4], in assay [5] and in assay [6] was > 30 µM (inactive) throughout. The Kd (in assay [7]; at Ephrin type-A receptor 5; in assay [8]; on Deoxycytidine kinase; in [9]; in assay [10]) was > 30 µM (inactive) throughout. The Kd in [11], in assay [12], in [13], in assay [14] and in [15] was > 30 µM (inactive) throughout.
Turning to `COCC(=O)NC/C=C/c1ccc2ncnc(Nc3ccc(Oc4ccc(C)nc4)c(C)c3)c2c1` [CP-724714], the Kd in [1], in [2], in assay [3], in assay [4], in [5] and in assay [6] was > 30 µM (inactive) in each case. Moreover, the Kd (in assay [7]; at Ephrin type-A receptor 5; in assay [8]; at Deoxycytidine kinase; in assay [9]; in [10]) was > 30 µM (inactive) each time. Further, the Kd in [11] was 1.26 µM (active); in [12], > 30 µM (inactive); in assay [13] it was > 30 µM (inactive); in assay [14] it was > 30 µM (inactive); in assay [15], > 30 µM (inactive).
